In PubChem BioAssay (NCI):
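Following 48 hours of exposure in 96-well plates, responses at five concentrations were used to interpolate endpoints linearly. GI50: concentration for 50% inhibition of growth. TGI marks complete inhibition of growth.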

Legend:
Assay in all cases: DTP human tumour cell line panel, 48 h; in the data active means GI50 below about 0.43 µM; inactive means the rest
[1] = tested on: CAKI-1 renal
[2] = tested on: SR leukemia
[3] = tested on: MDA-MB-435
[4] = tested on: UO-31 renal
[5] = tested on: IGROV1 ovarian
[6] = tested on: SNB-75 CNS
[7] = tested on: UACC-62 melanoma
[8] = tested on: MOLT-4 leukemia
[9] = tested on: HCT-15 colon
[10] = tested on: DU-145 prostate
[11] = tested on: PC-3 prostate
[12] = tested on: KM12 colon
[13] = tested on: HS 578T breast
[14] = tested on: OVCAR-5 ovarian
[15] = tested on: SW-620 colon
[16] = tested on: BT-549 breast
[17] = tested on: M14 melanoma
[18] = tested on: A498 renal
[19] = tested on: SK-MEL-5 melanoma
[20] = tested on: HCT-116 colon
[21] = tested on: SF-268 CNS
[22] = tested on: U251 CNS
[23] = tested on: HOP-92 NSCLC
[24] = tested on: SK-OV-3 ovarian
[25] = tested on: HT29 colon
[26] = tested on: NCI-H522 lung
[27] = tested on: EKVX NSCLC
[28] = tested on: SF-539 CNS
[29] = tested on: SK-MEL-28 melanoma
[30] = tested on: HCC-2998 colon
[31] = tested on: MDA-MB-231 breast
[32] = tested on: SNB-19 CNS
[33] = tested on: SN12C renal
[34] = tested on: MCF7 breast
[35] = tested on: CCRF-CEM leukemia
[36] = tested on: NCI-H23 lung
[37] = tested on: RXF 393 renal
[38] = tested on: T-47D breast
[39] = tested on: NCI-H460 lung
[40] = tested on: COLO 205 colon
[41] = tested on: OVCAR-8 ovarian
[42] = tested on: ACHN renal
[43] = tested on: SK-MEL-2 melanoma
[44] = tested on: HL-60(TB) leukemia
[45] = tested on: MALME-3M melanoma
[46] = tested on: HOP-62 NSCLC
[47] = tested on: LOX IMVI melanoma
[48] = tested on: UACC-257 melanoma
[49] = tested on: NCI-H226 lung
[50] = tested on: NCI/ADR-RES ovarian
[51] = tested on: SF-295 CNS
[52] = tested on: K-562 leukemia
[53] = tested on: OVCAR-4 ovarian
[54] = tested on: OVCAR-3 ovarian
[55] = tested on: A549 NSCLC
[56] = tested on: 786-0 renal
[57] = tested on: TK-10 renal
[58] = tested on: RPMI-8226 leukemia

CCc1cc2c(c(OCC(F)(F)F)c(C(=O)NC3CCN(C(=O)CO)CC3)n2C)c(=O)n1CC(=O)c1ccccc1
> 100 µM: TGI [1] | TGI [2] | TGI [3] | TGI [4] | TGI [5] | TGI [6] | TGI [7] | TGI [8] | TGI [9] | TGI [10] | TGI [11] | TGI [12] | TGI [13] | TGI [14] | TGI [15] | TGI [16] | TGI [17] | TGI [18] | TGI [19] | TGI [20] | TGI [21] | TGI [22] | TGI [23] | TGI [24] | TGI [25] | TGI [26] | TGI [27] | TGI [28] | TGI [29] | TGI [30] | TGI [31] | TGI [32] | TGI [33] | TGI [34] | TGI [35] | TGI [36] | TGI [38] | TGI [39] | TGI [40] | TGI [41] | TGI [42] | TGI [43] | TGI [44] | TGI [45] | TGI [46] | TGI [47] | TGI [48] | TGI [49] | TGI [50] | TGI [51] | TGI [52] | TGI [53] | TGI [54] | TGI [55] | TGI [56] | TGI [57] | TGI [58]
inactive: GI50 [1] > 60.3 µM | GI50 [2] 50.7 µM | GI50 [3] > 100 µM | GI50 [4] 45.3 µM | GI50 [5] > 80.5 µM | GI50 [6] > 33.9 µM | GI50 [7] 57.8 µM | GI50 [8] 37.2 µM | GI50 [9] 52.3 µM | GI50 [10] > 100 µM | GI50 [11] > 73.5 µM | GI50 [12] 58.5 µM | GI50 [13] 34.4 µM | GI50 [14] > 100 µM | GI50 [15] > 59.4 µM | GI50 [16] 51.3 µM | GI50 [17] > 100 µM | GI50 [18] 99.3 µM | GI50 [19] 80.2 µM | GI50 [20] 63.5 µM | GI50 [21] > 90.3 µM | GI50 [22] > 82.9 µM | GI50 [23] > 62.4 µM | GI50 [24] > 100 µM | GI50 [25] 65 µM | GI50 [26] > 95.9 µM | GI50 [27] > 100 µM | GI50 [28] 36.5 µM | GI50 [29] 70.4 µM | GI50 [30] > 78 µM | GI50 [31] 54.6 µM | GI50 [32] > 100 µM | GI50 [33] > 100 µM | GI50 [34] 44 µM | GI50 [35] 38.5 µM | GI50 [36] 99.7 µM | GI50 [37] 11.2 µM | GI50 [38] > 65.9 µM | GI50 [39] > 57.8 µM | GI50 [40] > 100 µM | GI50 [41] 45.5 µM | GI50 [42] > 64.5 µM | GI50 [43] 56.1 µM | GI50 [44] 59.3 µM | GI50 [45] > 100 µM | GI50 [46] > 80.9 µM | GI50 [47] > 80 µM | GI50 [48] > 82.2 µM | GI50 [49] 97 µM | GI50 [50] > 68.4 µM | GI50 [51] 34.7 µM | GI50 [52] 34.4 µM | GI50 [53] > 72.2 µM | GI50 [54] > 100 µM | GI50 [55] 92.2 µM | GI50 [56] 33.4 µM | GI50 [57] > 100 µM | GI50 [58] 27.7 µM
42.7 µM: TGI [37]

Cc1nnn(C)c1-c1cnc2c3ccc(C(C)(C)O)cc3n([C@H](c3ccccc3)C3CCOCC3)c2c1
30.1 µM: TGI [40]
20.9 µM: TGI [26]
31.9 µM: TGI [55]
3.98 µM: TGI [30]
30.9 µM: TGI [17]
21.5 µM: TGI [56]
37.8 µM: TGI [50]
27.9 µM: TGI [58]
10.7 µM: TGI [19]
> 100 µM: TGI [2] | TGI [3] | TGI [8] | TGI [10] | TGI [11] | TGI [13] | TGI [14] | TGI [21] | TGI [29] | TGI [32] | TGI [34] | TGI [35] | TGI [38] | TGI [52] | TGI [53]
> 74.9 µM: TGI [33]
> 71.7 µM: TGI [27]
14.9 µM: TGI [42]
20.5 µM: TGI [51]
active: GI50 [1] < 0.01 µM | GI50 [2] < 0.01 µM | GI50 [3] < 0.01 µM | GI50 [4] < 0.01 µM | GI50 [5] < 0.02 µM | GI50 [6] < 0.01 µM | GI50 [7] < 0.01 µM | GI50 [8] 0.197 µM | GI50 [9] < 0.0106 µM | GI50 [12] 0.141 µM | GI50 [13] < 0.01 µM | GI50 [14] 0.0907 µM | GI50 [17] < 0.01 µM | GI50 [18] < 0.0381 µM | GI50 [19] < 0.01 µM | GI50 [20] 0.0149 µM | GI50 [22] 0.27 µM | GI50 [23] < 0.01 µM | GI50 [24] < 0.01 µM | GI50 [25] < 0.01 µM | GI50 [26] < 0.01 µM | GI50 [27] 0.221 µM | GI50 [28] < 0.0182 µM | GI50 [30] 0.0356 µM | GI50 [31] < 0.01 µM | GI50 [32] 0.0395 µM | GI50 [34] < 0.01 µM | GI50 [35] 0.0663 µM | GI50 [36] 0.158 µM | GI50 [38] 0.0104 µM | GI50 [40] < 0.01 µM | GI50 [41] 0.0652 µM | GI50 [42] 0.0243 µM | GI50 [44] < 0.01 µM | GI50 [45] 0.052 µM | GI50 [46] < 0.0227 µM | GI50 [47] < 0.01 µM | GI50 [48] < 0.0132 µM | GI50 [49] 0.356 µM | GI50 [50] 0.26 µM | GI50 [51] 0.0555 µM | GI50 [52] < 0.01 µM | GI50 [53] 0.033 µM | GI50 [54] 0.0271 µM | GI50 [55] 0.037 µM | GI50 [56] 0.0707 µM | GI50 [57] < 0.01 µM | GI50 [58] < 0.01 µM
23.4 µM: TGI [49]
31.3 µM: TGI [48]
12.7 µM: TGI [7]
22.7 µM: TGI [23]
34.1 µM: TGI [36]
> 72.1 µM: TGI [15]
> 79.3 µM: TGI [5]
> 91.4 µM: TGI [12]
31.6 µM: TGI [41]
30.7 µM: TGI [43]
11 µM: TGI [57]
24.7 µM: TGI [31]
> 46.9 µM: TGI [46]
13.2 µM: TGI [1]
> 47.5 µM: TGI [22]
20.4 µM: TGI [37]
13.4 µM: TGI [4]
24 µM: TGI [16]
14.6 µM: TGI [9]
41.3 µM: TGI [45]
48.1 µM: TGI [44]
0.581 µM: TGI [18]
51.1 µM: TGI [28]
> 42 µM: TGI [25]
14.8 µM: TGI [54]
20.3 µM: TGI [6]
1.52 µM: TGI [47]
> 65.7 µM: TGI [39]
16.4 µM: TGI [20] | TGI [24]
inactive: GI50 [10] 11.2 µM | GI50 [11] 0.765 µM | GI50 [15] 7 µM | GI50 [16] 3.61 µM | GI50 [21] 5.22 µM | GI50 [29] 1.96 µM | GI50 [33] 1.4 µM | GI50 [37] 1.16 µM | GI50 [39] 0.966 µM | GI50 [43] 0.765 µM
